Measurements: patent US5770688A, “Method and composition for the treatment of mammalian HIV infection” (GSF-Forschungszentrum fur Umwelt und Gesundheit GmbH, priority 1989, dated 1998)

Legend:
[1] = blood serum levels of melittin after injection; assay type: in vivo, cats
Method: During the experiment it was determined that detectable blood serum levels of melittin (Seq. ID NO:1) of about 5 ng/ml could be detected following an injection of melittin equal to […] a few minutes after injection. […] In vitro data has shown that melittin, after this time interval, is found within the cells where it can be detected in tact for more than 48 hours. The LD50 (lethal dose where 50% of the animals perish) for melittin is not known for cats. In the present experiment, both cats M and G were treated twice weekly with subcutaneous injections over a period of eight weeks. During the first three weeks, each cat received increasing dosages of melittin (Seq. ID NO:1) beginning with a 50 mg/kg bodyweight injection, followed by injections of 100 mg/kg, and then escalating to 150, 225, 375 and 500 mg/kg at the sixth injection. Upon reaching this level, the melittin was administered in a constant dosage of 500 mg/kg twice weekly, for the remaining five weeks. […] The quantitative effect of melittin on FIV replication was determined quantitatively by utilizing FIV-PCR employing nested primers from the gag region. Quantification was based upon the determination of amplified product in identical samples which have been amplified after different cycle times. This is best seen by reference to FIG. 47A. Furthermore, each of the cats were clinically investigated in detail. […]

phospholipase A2 = settings: anterior pituitary; cited from earlier work
cell free HIV = assay: influence of melittin on cell free HIV (P24 determination, infectivity); settings: incubation of cell free HIV
[2] = in vitro persistence of melittin within cells
[3] = system: KE37-1 (uninfected) cells; assay: MTT test, growth of non-infected cells; assay type: cell-based; settings: KE37-1, seven days incubation; 10080 min
Method: The KE37-1 (uninfected) and KE37-1/111β (infected) cell lines discussed below are commercially available from the Dr. Robert Gallows Laboratory of the NIH in the United States of America and grown in a medium of RPMI 1640 (GIBCO) and further supplemented with 10% fetal calf serum which contained approximately 100 units of penicillin, 100 μg streptomycin, and approximately 0.25 μg fungizone (Amphotericin B) per milliliter. The human mesenchymal cell lines LC5 and LC5-HIV, discussed below, are deposited with the Collection De L'Institut Pasteur of Paris, France on Mar. 9, 1989 and given the accession numbers I-842 and I-843, respectively. The LC5 and LC5-HIV cell lines were grown in a medium of RPMI 1640 and supplemented with 10% fetal calf serum.
Referring more particularly to FIGS. 1-4, melittin (Seq. ID NO:1) and its specified analogues were tested for their effect on HIV-infected T-lymphoma cells. In this regard the following cell lines were employed in the testing: KE37-1 (uninfected) and KE37-1/111S (infected with HTLV-111β). These infected cells were incubated for a period of seven days under test conditions at a temperature of 37° C. and in the presence of 5% CO2. […] The optical density (OD) of the solution was determined at=600 nm. […]

## Gly-Ile-Gly-Ala-Val-Leu-Lys-Val-Leu-Thr-Thr-Gly-Leu-Pro-Ala-Leu-Ile-Ser-Trp-Ile-Lys-Arg-Lys-Arg-Gln-Gln-Amide [melittin]
[1]; in vivo
  disappearance from the serum: disappears quickly from the serum
[1]; injection equal to 200 mg/kg, a few minutes after injection
  detectable blood serum levels: about 5 ng/ml
Phospholipase A2
  effect on phospholipase A2: stimulates endogenous phospholipase A2 in the anterior pituitary leading to growth hormone secretion
Cell free HIV
  detection of the P24 antigen: does not impair the detection of the P24 antigen
  virus infectivity of cell free HIV: cause the virus infectivity to be reduced
[2]
  time detectable in tact within the cells: more than 48 hours
[3]
  concentration toxic to non-infected cells: above 5 μg per ml
